Results as given in US20080268435A1, “Brca1 Markers” (THE QUEEN'S UNIVERSITY OF BELFAST, priority 2004, published 2008).

What was measured:
Assay type in all cases: cell-based
[1] = tested on: HP1 and MDA-MB-231-zeo cell lines; assay: 72 hour dose inhibition study of etoposide, psoriasin-expressing HP1 vs empty vector MDA-MB-231-zeo cells; conditions: HP1 (exogenous psoriasin) vs MDA-MB231-zeo vector control; 72 h continuous exposure; from IC50 values; three independent experiments
Procedure: (§1) Cells were either untreated (lanes 1 and 2) or treated with 1 μM etoposide for 24 hours. The blot was reprobed for GAPDH as a loading control, (b) A Western blot evaluating the expression of psoriasin protein in the HCC-EV1 cell line (lanes 1 and 3) and the HCC-BR116 cell line (lanes 2 and 4). Cells were either untreated (lanes 1 and 2) or treated with 1 μM etoposide for 24 hours. The blot was reprobed for GAPDH as a loading control, (c) A 72 hour dose inhibition study investigating the effect of psoriasin expression on the response to etoposide in the HP1 and MDA-MB-231-zeo cell lines. The IC50 values were calculated from the sigmoidal dose response curves. […] (Symbols □=HP1 cell line (psoriasin expression) ▴=MDA-MB-231-zeo (empty vector control), (d) A 72 hour dose inhibition study investigating the effect of loss of psoriasin expression on the response to etoposide in the HCCEV1 cell line. The IC50 values were calculated from the sigmoidal dose response curves. The results represent three independent experiments. (Symbols ▴=siRNA to psoriasin □=scrambled sequence). […]
The HCC-EV1 cell line was treated with scrambled or psoriasin specific siRNA and after 24 hours seeded at 100,000 cells per well on 24 well tissue culture plates. […] After 72 h of continuous drug exposure, cells were detached with trypsin, and counted using a Z2 particle and size analyzer (Coulter, Miami, Fla.). […]

HCC-EV1 cell line = assay: 72 hour dose inhibition study of etoposide in HCC-EV1 cells, psoriasin siRNA vs scrambled sequence; conditions: BRCA1 deficient HCC-EV cells, 72 h exposure, from IC50 values, three independent experiments
Procedure: as §1
For drug sensitivity assays HCC-EV and HCCBR cells were seeded onto 24-well tissue culture plates at a density of 100,000 cells per well. […] After 72 hours of continuous drug exposure, cells were detached with trypsin and counted using a Z2 particle and size analyser (Coulter, Miami, Fla.). […]

[2] = tested on: psoriasin (S100A7) mRNA and protein in HCC-EV1 and HCC-BR116 cells; assay: Northern and Western blot of psoriasin expression after etoposide treatment; conditions: BRCA1 deficient cells (HCC-EV1), 1 μM etoposide for 24 hours
Procedure: Cells were either untreated (lanes 1 and 2) or treated with 1 μM etoposide for 24 hours. The blot was reprobed for GAPDH as a loading control, (b) A Western blot evaluating the expression of psoriasin protein in the HCC-EV1 cell line (lanes 1 and 3) and the HCC-BR116 cell line (lanes 2 and 4). Cells were either untreated (lanes 1 and 2) or treated with 1 μM etoposide for 24 hours. The blot was reprobed for GAPDH as a loading control, (c) A 72 hour dose inhibition study investigating the effect of psoriasin expression on the response to etoposide in the HP1 and MDA-MB-231-zeo cell lines. The IC50 values were calculated from the sigmoidal dose response curves. The results represent three independent experiments. (Symbols □=HP1 cell line (psoriasin expression) ▴=MDA-MB-231-zeo (empty vector control), (d) A 72 hour dose inhibition study investigating the effect of loss of psoriasin expression on the response to etoposide in the HCCEV1 cell line. The IC50 values were calculated from the sigmoidal dose response curves. The results represent three independent experiments. (Symbols ▴=siRNA to psoriasin □=scrambled sequence). […]

COc1cc([C@@H]2c3cc4c(cc3[C@@H](O[C@@H]3O[C@@H]5CO[C@@H](C)O[C@H]5[C@H](O)[C@H]3O)[C@H]3COC(=O)[C@H]23)OCO4)cc(OC)c1O [etoposide]
increase in sensitivity to etoposide induced by expression of psoriasin [1]: 4000 fold | increase in resistance to etoposide induced by inhibition of endogenous psoriasin (HCC-EV1 cell line): greater than 20 fold | expression of psoriasin mRNA and protein following etoposide treatment [2]: enhanced expression
